The results in this text go back to US9000044B2, “Substituted naphthylacetic acids” (Hoffmann-La Roche Inc., priority 2012, dated 2015).

SMILES strings stand for the structures.

This experiment has as its target human CRTH2 (Homo sapiens (Human), UniProt Q9Y5Y4). Nature of the experiment: Calcium Flux Assay Using Fluorometric Imaging Plate Reader (FLIPR). It is filed as cell-based. Conditions: CHO-K1 cells with G-alpha 16 and human CRTH2; inhibition of DK-PGD2 ligand-induced Ca2+ flux. The protocol:
Calcium Flux Assay Using Fluorometric Imaging Plate Reader (FLIPR)
Cell Culture Conditions: CHO-K1 cells previously transfected with G-alpha 16 were subsequently transfected with the human CRTH2 receptor and the neomycin resistance gene. Following selection in 800 μg/mL G418 (geneticin), individual clones were assayed for their receptor expression based on staining with an anti human CRTH2 IgG, followed by assaying for their response to 13,14-dihydro-15-keto Prostaglandin D2 (DK-PDG2) (ligand) in the Ca^2+ Flux assay. Positive clones were then cloned by limiting dilution cloning. The transfected cells were cultured in Ham's F-12 medium supplemented with 10% fetal bovine serum, 2 mM glutamine, 100 U/mL penicillin/100 μg/mL streptomycin, 200 μg/mL hygromycin B, and 800 μg/mL G418 (geneticin). Cells were harvested with trypsin-EDTA (trypsin-ethylenediaminetetraacetic acid) and counted using ViaCount® reagent (from Guava Technologies, Inc. which contains two DNA-binding dyes that enable the reagent user to distinguish between viable and non-viable cells). The cell suspension volume was adjusted to 2.5×10^5 cells/mL with complete growth media. Aliquots of 50 μL were dispensed into BD Falcon™ 384 well black/clear microplates (from BD Biosciences, a division of Becton, Dickinson and Company) and the microplates were placed in a 37° C. CO2 incubator overnight. The following day, the microplates were used in the assay.
Loading Buffer containing dye (from the FLIPR® Calcium 3 Assay Kit from Molecular Devices, a division of MDS Analytical Technologies and MDS Inc.) was prepared by dissolving the contents of one bottle into 200 mL Hank's Balanced Salt Solution containing 20 mM HEPES (4-(2-hydroxyethyl)-1-piperazineethanesulfonic acid) and 2.5 mM probenecid. Growth media was removed from the cell plates and 25 μL of Hank's Balanced Salt Solution (HBSS) containing 20 mM HEPES, 0.05% BSA and 2.5 mM probenecid was added to each well followed by 25 μL of diluted dye using a Multidrop dispenser. The plates were then incubated for 1 hour at 37° C.
During the incubation, test compound plates were prepared by adding 90 μL of HBSS/20 mM HEPES/0.005% BSA buffer to the 2 μL of serial diluted compounds. To prepare serial diluted compounds, 20 mM stocks of compounds were dissolved in 100% DMSO. The compound dilution plate was set up as follows: well #1 received 5 μL of compound plus 10 μL of DMSO. Wells 2-10 received 10 μL of DMSO. 5 μL was mixed and transferred from well #1 into well #2. 1:3 serial dilutions were continued out 10 steps. 2 μL of diluted compound was transferred into duplicate wells of a 384 well “assay plate” and then 90 μL of buffer was added.
After incubation, both the cell and “assay plate” plates were brought to the fluorometric imaging plate reader (FLIPR®) and 20 μL of the diluted compounds were transferred to the cell plates by the FLIPR®. Plates were then incubated for 1 hour at room temperature. […] During the assay, fluorescence readings were taken simultaneously from all 384 wells of the cell plate every 1.5 seconds. Five readings were taken to establish a stable baseline, then 20 μL of sample was rapidly (30 μL/sec) and simultaneously added to each well of the cell plate. The fluorescence was continuously monitored before, during and after sample addition for a total elapsed time of 100 seconds. Responses (increase in peak fluorescence) in each well following agonist addition were determined. The initial fluorescence reading from each well, prior to ligand stimulation, was used as a zero baseline value for the data from that well. The responses were expressed as % inhibition of the buffer control.

human CRTH2, sequence (Q9Y5Y4 whole entry): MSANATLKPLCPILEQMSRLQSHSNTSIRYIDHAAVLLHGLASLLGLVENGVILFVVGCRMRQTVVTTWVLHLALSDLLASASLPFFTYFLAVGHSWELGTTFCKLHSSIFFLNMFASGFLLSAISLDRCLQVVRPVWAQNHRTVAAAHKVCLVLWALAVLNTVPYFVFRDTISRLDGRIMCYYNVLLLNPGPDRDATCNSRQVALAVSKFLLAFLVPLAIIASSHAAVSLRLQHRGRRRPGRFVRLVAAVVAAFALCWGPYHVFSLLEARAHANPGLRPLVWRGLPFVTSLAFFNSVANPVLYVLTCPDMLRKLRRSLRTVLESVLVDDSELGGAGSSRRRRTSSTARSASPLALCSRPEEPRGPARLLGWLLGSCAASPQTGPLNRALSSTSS

With `Cc1c(Cl)cccc1NS(=O)(=O)c1ccc(-c2c(C)c(CC(=O)O)cc3ccc(Cl)cc23)cc1` [Example 31, {6-Chloro-4-[4-(3-chloro-2-methyl-phenylsulfamoyl)-phenyl]-3-methyl-naphthalen-2-yl}-acetic acid], the IC50 was determined as 6.7 nM.
Then `Cc1c(CC(=O)O)cc2ccc(F)cc2c1-c1ccc(S(=O)(=O)c2ccccc2C(F)(F)F)cc1` [Example 5, {6-Fluoro-3-methyl-4-[4-(2-trifluoromethyl-benzenesulfonyl)-phenyl]-naphthalen-2-yl}-acetic acid], with 1.3 nM; and `Cc1c(CC(=O)O)cc2ccc(Cl)cc2c1-c1ccc(S(=O)(=O)c2cc(Cl)ccc2Cl)cc1` [Example 22, {6-Chloro-4-[4-(2,5-dichloro-benzenesulfonyl)-phenyl]-3-methyl-naphthalen-2-yl}-acetic acid], with 4.4 nM; and `Cc1c(CC(=O)O)cc2ccc(F)cc2c1-c1ccc(S(=O)(=O)Nc2cccc(Cl)c2)cc1` [Example 45, {4-[4-(3-Chloro-phenylsulfamoyl)-phenyl]-6-fluoro-3-methyl-naphthalen-2-yl}-acetic acid], with 1.5 nM.
Then `COc1ccc(CNS(=O)(=O)c2ccc(-c3c(C)c(CC(=O)O)cc4ccc(F)cc34)cc2)cc1` [Example 52, {6-Fluoro-4-[4-(4-methoxy-benzylsulfamoyl)-phenyl]-3-methyl-naphthalen-2-yl}-acetic acid], with 3.2 nM.
Then `Cc1c(CC(=O)O)cc2ccc(Cl)cc2c1-c1ccc(S(=O)(=O)c2ccccc2C(F)(F)F)cc1` [Example 18, {6-Chloro-3-methyl-4-[4-(2-trifluoromethyl-benzenesulfonyl)-phenyl]-naphthalen-2-yl}-acetic acid], with 2.3 nM.
`Cc1c(CC(=O)O)cc2ccc(Cl)cc2c1-c1ccc(S(=O)(=O)c2ccc(OC(F)(F)F)cc2)cc1` [Example 20, {6-Chloro-3-methyl-4-[4-(4-trifluoromethoxy-benzenesulfonyl)-phenyl]-naphthalen-2-yl}-acetic acid]: the concentration for half-maximal inhibition (IC50) turned out to be 12.9 nM.
For `Cc1c(CC(=O)O)cc2ccc(F)cc2c1-c1ccc(S(=O)(=O)c2ccccc2Cl)cc1` [Example 2, {4-[4-(2-Chloro-benzenesulfonyl)-phenyl]-6-fluoro-3-methyl-naphthalen-2-yl}-acetic acid], the IC50 was 0.7 nM.
The figure for `Cc1c(CC(=O)O)cc2ccc(F)cc2c1-c1ccc(S(=O)(=O)NCc2ccccc2)cc1` [Example 51, [4-(4-Benzylsulfamoyl-phenyl)-6-fluoro-3-methyl-naphthalen-2-yl]-acetic acid] is 0.4 nM.
As for `Cc1c(CC(=O)O)cc2ccc(F)cc2c1-c1ccc(S(=O)(=O)N2CCCCC2)cc1` [Example 47, {6-Fluoro-3-methyl-4-[4-(piperidine-1-sulfonyl)-phenyl]-naphthalen-2-yl}-acetic acid], the IC50 is 4.1 nM.
The figure for `CCN(CC)S(=O)(=O)c1ccc(-c2c(C)c(CC(=O)O)cc3ccc(Cl)cc23)cc1` [Example 35, [6-Chloro-4-(4-diethylsulfamoyl-phenyl)-3-methyl-naphthalen-2-yl]-acetic acid] is 0.5 nM; for `Cc1c(CC(=O)O)cc2ccc(F)cc2c1-c1ccc(S(=O)(=O)c2ccccc2OC(F)(F)F)cc1` [Example 6, {6-Fluoro-3-methyl-4-[4-(2-trifluoromethoxy-benzenesulfonyl)-phenyl]-naphthalen-2-yl}-acetic acid] it is 1 nM; for `Cc1c(CC(=O)O)cc2ccc(Cl)cc2c1-c1ccc(S(=O)(=O)NC(C)C)cc1` [Example 37, [6-Chloro-4-(4-isopropylsulfamoyl-phenyl)-3-methyl-naphthalen-2-yl]-acetic acid] it is 1.5 nM.
With `Cc1c(CC(=O)O)cc2ccc(F)cc2c1-c1ccc(S(=O)(=O)c2cc(Cl)cc(Cl)c2)cc1` [Example 13, {4-[4-(3,5-Dichloro-benzenesulfonyl)-phenyl]-6-fluoro-3-methyl-naphthalen-2-yl}-acetic acid], the IC50 turned out to be 5.4 nM.
The figure for `Cc1c(CC(=O)O)cc2ccc(Cl)cc2c1-c1ccc(S(=O)(=O)NCc2ccccc2)cc1` [Example 38, [4-(4-Benzylsulfamoyl-phenyl)-6-chloro-3-methyl-naphthalen-2-yl]-acetic acid] is 1.6 nM.
As to `Cc1c(CC(=O)O)cc2ccc(Cl)cc2c1-c1ccc(S(=O)(=O)c2cc(Cl)cc(Cl)c2)cc1` [Example 26, {6-Chloro-4-[4-(3,5-dichloro-benzenesulfonyl)-phenyl]-3-methyl-naphthalen-2-yl}-acetic acid], the IC50 came out at 22.1 nM.
The figure for `Cc1c(CC(=O)O)cc2ccc(F)cc2c1-c1ccc(S(=O)(=O)c2ccc(OC(F)(F)F)cc2)cc1` [Example 7, {6-Fluoro-3-methyl-4-[4-(4-trifluoromethoxy-benzenesulfonyl)-phenyl]-naphthalen-2-yl}-acetic acid] is 15.8 nM; for `Cc1c(CC(=O)O)cc2ccc(F)cc2c1-c1ccc(S(=O)(=O)c2ccc(Cl)cc2)cc1` [Example 4, {4-[4-(4-Chloro-benzenesulfonyl)-phenyl]-6-fluoro-3-methyl-naphthalen-2-yl}-acetic acid] it is 3.2 nM.
The figure for `Cc1c(CC(=O)O)cc2ccc(Cl)cc2c1-c1ccc(S(=O)(=O)c2ccccc2Cl)cc1` [Example 15, {6-Chloro-4-[4-(2-chloro-benzenesulfonyl)-phenyl]-3-methyl-naphthalen-2-yl}-acetic acid] is 9.2 nM; for `CCN(CC)S(=O)(=O)c1ccc(-c2c(C)c(CC(=O)O)cc3ccc(F)cc23)cc1` [Example 48, [4-(4-Diethylsulfamoyl-phenyl)-6-fluoro-3-methyl-naphthalen-2-yl]-acetic acid] it is 1.8 nM.
Then `Cc1c(CC(=O)O)cc2ccc(F)cc2c1-c1ccc(S(=O)(=O)N2CCCC2)cc1` [Example 46, {6-Fluoro-3-methyl-4-[4-(pyrrolidine-1-sulfonyl)-phenyl]-naphthalen-2-yl}-acetic acid], with 0.7 nM; and `Cc1c(CC(=O)O)cc2ccc(Cl)cc2c1-c1ccc(S(=O)(=O)NC2CCCCC2)cc1` [Example 36, [6-Chloro-4-(4-cyclohexylsulfamoyl-phenyl)-3-methyl-naphthalen-2-yl]-acetic acid], with 6.1 nM.
In the case of `Cc1c(CC(=O)O)cc2ccc(Cl)cc2c1-c1ccc(S(=O)(=O)Nc2ccc(F)cc2)cc1` [Example 28, {6-Chloro-4-[4-(4-fluoro-phenylsulfamoyl)-phenyl]-3-methyl-naphthalen-2-yl}-acetic acid], the IC50 came out at 1.1 nM.
The figure for `Cc1ccc(NS(=O)(=O)c2ccc(-c3c(C)c(CC(=O)O)cc4ccc(Cl)cc34)cc2)cc1` [Example 29, [6-Chloro-3-methyl-4-(4-p-tolylsulfamoyl-phenyl)-naphthalen-2-yl]-acetic acid] is 2.7 nM.
Then `Cc1ccc(NS(=O)(=O)c2ccc(-c3c(C)c(CC(=O)O)cc4ccc(F)cc34)cc2)cc1` [Example 42, [6-Fluoro-3-methyl-4-(4-p-tolylsulfamoyl-phenyl)-naphthalen-2-yl]-acetic acid], with 0.9 nM; and `Cc1c(CC(=O)O)cc2ccc(Cl)cc2c1-c1ccc(S(=O)(=O)c2ccccc2OC(F)(F)F)cc1` [Example 19, {6-Chloro-3-methyl-4-[4-(2-trifluoromethoxy-benzenesulfonyl)-phenyl]-naphthalen-2-yl}-acetic acid], with 19.7 nM.
Then `Cc1c(CC(=O)O)cc2ccc(F)cc2c1-c1ccc(S(=O)(=O)c2ccc(Cl)cc2Cl)cc1` [Example 8, {4-[4-(2,4-Dichloro-benzenesulfonyl)-phenyl]-6-fluoro-3-methyl-naphthalen-2-yl}-acetic acid], with 9.1 nM.
In the case of `Cc1c(CC(=O)O)cc2ccc(F)cc2c1-c1ccc(S(=O)(=O)c2cc(F)cc(F)c2)cc1` [Example 14, {4-[4-(3,5-Difluoro-benzenesulfonyl)-phenyl]-6-fluoro-3-methyl-naphthalen-2-yl}-acetic acid], the IC50 is 1.6 nM.
